Patent US12492188B2, “1H-benzo[D]imidazole derivatives as TLR9 inhibitors for the treatment of fibrosis” (BRISTOL-MYERS SQUIBB COMPANY, priority 2020, dated 2025)
pIC50: −log10 of the molar value. Like-named read-outs stand apart in the source and are kept apart here.

Experiments:
Format in all cases: cell-based
human TLR9 = target: T1, human TLR9 (Homo sapiens, UniProt Q9NR96); test: TLR9 inhibition reporter assay (HEK-Blue cells, secreted embryonic alkaline phosphatase reporter)
T1 construct: host or cells: HEK-Blue cells (HEK293-derived reporter line)
T1 sequence (Q9NR96 26-1032): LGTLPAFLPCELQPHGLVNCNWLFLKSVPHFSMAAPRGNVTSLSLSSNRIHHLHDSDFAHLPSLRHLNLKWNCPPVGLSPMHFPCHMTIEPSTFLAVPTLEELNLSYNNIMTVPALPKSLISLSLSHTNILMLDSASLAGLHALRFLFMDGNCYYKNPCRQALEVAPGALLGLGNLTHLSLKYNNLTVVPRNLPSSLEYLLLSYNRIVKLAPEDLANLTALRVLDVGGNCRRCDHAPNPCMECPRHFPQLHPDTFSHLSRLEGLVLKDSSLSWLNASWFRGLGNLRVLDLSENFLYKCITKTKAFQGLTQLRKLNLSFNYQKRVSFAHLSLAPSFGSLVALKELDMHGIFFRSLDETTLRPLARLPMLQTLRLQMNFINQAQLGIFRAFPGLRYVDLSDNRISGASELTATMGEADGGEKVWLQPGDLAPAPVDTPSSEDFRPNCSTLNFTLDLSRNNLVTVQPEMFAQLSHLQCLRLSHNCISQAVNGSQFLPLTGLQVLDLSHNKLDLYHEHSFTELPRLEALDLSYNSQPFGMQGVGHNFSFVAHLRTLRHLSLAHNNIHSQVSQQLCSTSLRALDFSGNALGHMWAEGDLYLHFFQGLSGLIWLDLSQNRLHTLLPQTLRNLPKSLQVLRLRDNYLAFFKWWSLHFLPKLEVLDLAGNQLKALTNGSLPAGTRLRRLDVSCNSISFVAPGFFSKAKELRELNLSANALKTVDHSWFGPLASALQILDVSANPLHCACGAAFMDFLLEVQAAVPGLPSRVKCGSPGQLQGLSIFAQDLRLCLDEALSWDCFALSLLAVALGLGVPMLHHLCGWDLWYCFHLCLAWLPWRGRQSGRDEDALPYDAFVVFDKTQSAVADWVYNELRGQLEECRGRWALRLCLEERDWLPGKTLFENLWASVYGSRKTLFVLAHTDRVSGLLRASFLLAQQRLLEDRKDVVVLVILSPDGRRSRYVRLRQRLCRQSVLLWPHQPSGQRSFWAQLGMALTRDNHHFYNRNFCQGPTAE
Method in brief: (§1)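 Read-out is SEAP colour from HEK-Blue Detection medium after 22 h at 37 °C, converted to percent inhibition between agonist-plus-DMSO and reference-inhibitor wells. Receptor-overexpressing HEK-Blue cells received compound over 0.05 nM–50 μM for 30 min before agonist: gardiquimod 7.5 μM for TLR7, R848 15.9 μM for TLR8, ODN2006 5 nM for TLR9.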

human TLR7 = target: T2, human TLR7 (Homo sapiens, UniProt Q9NYK1); test: TLR7 inhibition reporter assay (HEK-Blue cells, secreted embryonic alkaline phosphatase reporter); settings: HEK-Blue cells overexpressing human TLR7, stimulated with gardiquimod 7.5 μM; read-out: TLR 7 IC50
T2 construct: host or cells: HEK-Blue cells (HEK293-derived reporter line)
T2 sequence (Q9NYK1 27-1049): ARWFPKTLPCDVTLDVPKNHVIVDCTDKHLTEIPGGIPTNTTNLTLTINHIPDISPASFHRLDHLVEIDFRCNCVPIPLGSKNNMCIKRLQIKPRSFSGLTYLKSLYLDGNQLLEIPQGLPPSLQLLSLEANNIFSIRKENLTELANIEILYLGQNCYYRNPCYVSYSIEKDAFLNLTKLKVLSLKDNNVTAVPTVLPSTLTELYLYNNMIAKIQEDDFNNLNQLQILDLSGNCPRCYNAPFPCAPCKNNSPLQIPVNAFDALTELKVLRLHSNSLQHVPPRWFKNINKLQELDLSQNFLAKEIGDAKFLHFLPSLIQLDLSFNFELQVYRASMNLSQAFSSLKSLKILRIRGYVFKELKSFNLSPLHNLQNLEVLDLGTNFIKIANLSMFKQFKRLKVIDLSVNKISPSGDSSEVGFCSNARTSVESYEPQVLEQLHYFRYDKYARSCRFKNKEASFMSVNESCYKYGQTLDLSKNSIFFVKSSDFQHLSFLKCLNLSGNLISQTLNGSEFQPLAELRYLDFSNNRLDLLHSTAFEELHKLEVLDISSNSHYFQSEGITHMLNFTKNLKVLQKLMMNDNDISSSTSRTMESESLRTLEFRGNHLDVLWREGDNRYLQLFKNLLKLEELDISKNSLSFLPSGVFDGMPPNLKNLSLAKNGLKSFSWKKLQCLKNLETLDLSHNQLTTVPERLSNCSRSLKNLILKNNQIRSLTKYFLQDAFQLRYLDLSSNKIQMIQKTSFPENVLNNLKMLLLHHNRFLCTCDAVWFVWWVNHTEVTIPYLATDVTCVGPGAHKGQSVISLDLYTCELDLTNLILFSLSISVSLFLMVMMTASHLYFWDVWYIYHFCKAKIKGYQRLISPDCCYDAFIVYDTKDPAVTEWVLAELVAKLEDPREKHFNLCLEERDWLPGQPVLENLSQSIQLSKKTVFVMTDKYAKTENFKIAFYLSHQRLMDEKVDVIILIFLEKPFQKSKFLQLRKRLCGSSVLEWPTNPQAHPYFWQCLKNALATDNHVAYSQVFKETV
Method in brief: as §1

human TLR8 = target: T3, human TLR8 (Homo sapiens, UniProt Q9NR97); test: TLR8 inhibition reporter assay (HEK-Blue cells, secreted embryonic alkaline phosphatase reporter); settings: HEK-Blue cells overexpressing human TLR8, stimulated with R848 15.9 μM; read-out: TLR 8 IC50
T3 construct: host or cells: HEK-Blue cells (HEK293-derived reporter line)
T3 sequence (Q9NR97 27-1041): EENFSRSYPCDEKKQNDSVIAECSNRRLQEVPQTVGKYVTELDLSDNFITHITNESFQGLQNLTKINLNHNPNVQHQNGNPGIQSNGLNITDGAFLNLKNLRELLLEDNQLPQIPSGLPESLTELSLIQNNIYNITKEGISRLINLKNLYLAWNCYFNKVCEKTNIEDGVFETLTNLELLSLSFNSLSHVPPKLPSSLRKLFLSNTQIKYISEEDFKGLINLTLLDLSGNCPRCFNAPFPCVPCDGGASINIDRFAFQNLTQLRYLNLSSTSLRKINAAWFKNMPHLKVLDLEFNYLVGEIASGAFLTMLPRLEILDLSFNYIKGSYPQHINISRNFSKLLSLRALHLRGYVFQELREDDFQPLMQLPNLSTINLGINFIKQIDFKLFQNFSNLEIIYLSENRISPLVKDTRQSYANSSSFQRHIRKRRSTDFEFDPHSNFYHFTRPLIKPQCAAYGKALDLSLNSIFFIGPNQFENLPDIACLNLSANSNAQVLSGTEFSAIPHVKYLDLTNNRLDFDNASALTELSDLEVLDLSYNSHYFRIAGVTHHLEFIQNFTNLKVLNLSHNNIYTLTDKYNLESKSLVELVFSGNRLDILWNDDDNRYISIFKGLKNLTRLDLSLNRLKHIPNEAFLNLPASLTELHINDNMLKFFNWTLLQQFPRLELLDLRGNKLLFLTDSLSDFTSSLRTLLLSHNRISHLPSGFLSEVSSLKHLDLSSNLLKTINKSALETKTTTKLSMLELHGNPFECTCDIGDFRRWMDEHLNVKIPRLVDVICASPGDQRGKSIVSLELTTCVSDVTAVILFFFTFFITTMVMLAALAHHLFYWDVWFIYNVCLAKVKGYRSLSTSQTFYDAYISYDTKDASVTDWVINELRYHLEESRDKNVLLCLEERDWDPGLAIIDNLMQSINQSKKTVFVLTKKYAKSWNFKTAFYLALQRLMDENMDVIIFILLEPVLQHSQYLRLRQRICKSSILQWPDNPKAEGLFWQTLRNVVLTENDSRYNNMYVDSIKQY
Method in brief: as §1

[1] = HEK-Blue cells overexpressing human TLR9, stimulated with ODN2006 5 nM, read-out: TLR 9 IC50
[2] = HEK-Blue human TLR9 reporter cells
[3] = HEK-Blue cells overexpressing human TLR9, stimulated with ODN2006 5 nM, 22 hour incubation, reporter readout

Structure (SMILES) | pIC50 (human TLR9; [1]) | pIC50 (human TLR9; [2]) | pIC50 (human TLR7) | pIC50 (human TLR8) | pIC50 (human TLR9) | pIC50 (human TLR9; [3])
Cn1c(-c2ccc(S(C)(=O)=O)cc2)nc2cc(F)c(C3CCN(C4CC5CCC(C4)N5C4CCOCC4)CC3)cc21 (stereo not shown) [Example 236, 5-fluoro-1-methyl-2-(4-(methylsulfonyl)phenyl)-6-(1-(8-(tetrahydro-2H-pyran-4-yl)-8-azabicyclo[3.2.1]octan-3-yl)piperidin-4-yl)-1H-benzo[d]imidazole] | 7.00 | – | < 4.30 | < 4.30 | 7.00 | –
Cc1cc(C2CCN(C3CCCN(C4CCOCC4)CC3)CC2)cc2c1nc(-c1ccc(S(C)(=O)=O)cc1)n2C (single isomer, unassigned) [Example 307, 1,4-dimethyl-2-(4-(methylsulfonyl)phenyl)-6-(1-(1-(tetrahydro-2H-pyran-4-yl)azepan-4-yl)piperidin-4-yl)-1H-benzo[d]imidazole] | 8.46 | 8.46 | 4.69 | < 4.30 | – | –
COc1ccc(-c2nc3c(C)cc(C4CCN(C5CCN(CC(C)C)CC5)CC4)cc3[nH]2)cc1F [Example 56, 2-(3-fluoro-4-methoxyphenyl)-6-(1′-isobutyl-[1,4′-bipiperidin]-4-yl)-4-methyl-1H-benzo[d]imidazole] | 7.30 | – | 5.49 | < 4.30 | – | 7.30
Cn1c(-c2ccc(S(C)(=O)=O)cc2)nc2ccc(C3CCN(C4CC5CCC(C4)N5C4CCC4)CC3)c(F)c21 (single isomer, unassigned) [Example 271, 6-(1-(8-cyclobutyl-8-azabicyclo[3.2.1]octan-3-yl)piperidin-4-yl)-7-fluoro-1-methyl-2-(4-(methylsulfonyl)phenyl)-1H-benzo[d]imidazole] | 6.39 | – | 4.50 | < 4.30 | 6.39 | –
Cn1c(-c2ccc(S(C)(=O)=O)cc2)nc2cc(F)c(C3CCN(C4CC5CCC(C4)N5C4CCC4)CC3)cc21 (stereo not shown) [Example 232, 6-(1-(8-cyclobutyl-8-azabicyclo[3.2.1]octan-3-yl)piperidin-4-yl)-5-fluoro-1-methyl-2-(4-(methylsulfonyl)phenyl)-1H-benzo[d]imidazole] | 7.35 | – | 4.65 | < 4.30 | 7.35 | –

Next, values leading:

pIC50 (human TLR9; [1]) | pIC50 (human TLR9; [2]) | pIC50 (human TLR7) | pIC50 (human TLR8) | pIC50 (human TLR9) | pIC50 (human TLR9; [3]) | Structure (SMILES)
7.34 | 7.33 | < 4.30 | < 4.30 | – | – | CC(C)CN1CCCC(N2CCC(c3ccc4nc(-c5ccc(S(C)(=O)=O)cc5)n(C)c4c3F)CC2)CC1 (stereo not shown) [Example 310, 7-fluoro-6-(1-(1-isobutylazepan-4-yl)piperidin-4-yl)-1-methyl-2-(4-(methylsulfonyl)phenyl)-1H-benzo[d]imidazole]
6.75 | – | 5.92 | 5.25 | – | 6.74 | Cc1cc(-c2ccc(CN3CCC(N(C)C)CC3)cc2)cc2c1nc(-c1ccc(S(C)(=O)=O)cc1)n2C [Example 385, 1-(4-(1,4-dimethyl-2-(4-(methylsulfonyl)phenyl)-1H-benzo[d]imidazol-6-yl)benzyl)-N,N-dimethylpiperidin-4-amine]
– | – | 5.74 | 5.17 | – | 7.26 | Cc1cc(-c2ccc(CN3CC4(C3)CN(CC(C)C)C4)cc2)cc2c1nc(-c1ccc(S(C)(=O)=O)cc1)n2C [Example 371, 6-(4-((6-isobutyl-2,6-diazaspiro[3.3]heptan-2-yl)methyl)phenyl)-1,4-dimethyl-2-(4-(methylsulfonyl)phenyl)-1H-benzo[d]imidazole]
8.41 | – | 6.22 | 5.24 | – | 8.41 | Cc1cc(-c2ccc(CN3CCC(N4CCC4)CC3)cc2)cc2c1nc(-c1ccc(S(C)(=O)=O)cc1)n2C [Example 402, 6-(4-((4-(azetidin-1-yl)piperidin-1-yl)methyl)phenyl)-1,4-dimethyl-2-(4-(methylsulfonyl)phenyl)-1H-benzo[d]imidazole]
7.28 | 7.28 | 5.92 | < 4.30 | – | – | Cc1cc(C2CCN(C3CCN(C4CCC4)CC3)CC2)cc2c1nc(-c1ccc(S(C)(=O)=O)c(F)c1)n2C [Example 337, 6-(1′-cyclobutyl-[1,4′-bipiperidin]-4-yl)-2-(3-fluoro-4-(methylsulfonyl)phenyl)-1,4-dimethyl-1H-benzo[d]imidazole]
6.88 | – | 6.22 | 5.70 | – | 6.89 | Cc1cc(-c2cc(F)cc(CN3CCC(N4CCC4)CC3)c2)cc2c1nc(-c1ccc(S(C)(=O)=O)cc1)n2C [Example 406, 6-(3-((4-(azetidin-1-yl)piperidin-1-yl)methyl)-5-fluorophenyl)-1,4-dimethyl-2-(4-(methylsulfonyl)phenyl)-1H-benzo[d]imidazole]
